The test system of one experiment is C1498. The experiment in a line: MTS cell proliferation assay, C1498. The experiment is classed as cell-based, murine. On the procedure:
(§1) Cell proliferation was measured using the CellTiter 96 Aqueous Non-Radioactive Cell Proliferation Assay (Promega). […] MTS is bioreduced by cells into a formazan product that is soluble in tissue culture medium. The absorbance of the formazan product at 490 nm can be measured directly from assay plates without additional processing. The quantity of formazan product as measured by the amount of 490 nm absorbance is directly proportional to the number of living cells in culture. Cells were seeded into 96-well or 384-well clear plates in a volume of 200 μL (96-well) or 50 μL (384-well) at optimized densities ranging from 1,000 to 40,000 cells per well for 96-well plates or 1,200 to 25,000 cells per well for 384-well plates depending on cell-line. After 4-6 hr recovery, serially diluted compounds in DMSO were added to the cells using (0.1% v/v final DMSO concentration). Cells were then grown at 37° C. in a humidified incubator with 5% CO2 for 72 hr. A 20:1 [3-(4,5-dimethylthiazol-2-yl)-5-(3-carboxymethoxyphenyl)-2-(4-sulfophenyl)-2H-tetrazolium](MTS):phenazine methosulfate (PMS) solution in DPBS was made immediately before use, added to each well, and cells were incubated for 1.5 hr at 37° C. The absorbance at 490 nm was then measured using a platereader. Absorbance values were normalized as percent of control (cells incubated in the presence of 0.1% v/v DMSO). Sigmoidal dose-response curves were plotted using log(inhibitor) vs. response—Variable slope (four parameters) model with a top value constrained to 100% (GraphPad Prism version 6.00 for Windows, GraphPad Software, La Jolla California USA). […] To determine potential of compounds of the invention to affect viability of hematological cancers, cell lines representing various tumor types were selected and tested. […] In addition, two murine cell lines were tested: A20 […].
For orientation: Tetrazolium assays rely on reduction of a dye to a coloured formazan, in cell work by metabolically active cells.

The test system of the next experiment is P-AKT. The experiment in a line: Western blot, AKT phosphorylation in A20 cells. The experiment is classed as cell-based, murine. The procedure:
(§2) For phosphoprotein analyses, cells were seeded into 10 cm petri dishes (10×10^6 cells/dish) in media supplemented with 10% FBS and penicillin/streptomycin. After cells recovered for 1 hr at 37° C., compounds were added in DMSO (0.1% final) and incubated for 4 or 24 hr at 37° C. Cells were then harvested by centrifugation and washed with cold PBS. Cell pellets were resuspended in cell extraction buffer (Invitrogen) supplemented with 2×Halt™ protease and phosphatase inhibitor cocktail (Thermo Scientific), 2 mM sodium orthovanadate, 10 mM EDTA and 4 mM PMSF. Samples were lysed by sonication and incubated on ice for 30 min. Cell debris was removed by centrifugation and protein concentrations were determined using the BCA Protein Assay Kit (Pierce). The clarified lysate was diluted in LDS sample buffer with reducing agent (Life Technologies). […] Gels were run at 110 V and proteins were transferred to a PVDF membrane. Membranes were blocked in TBS blocking buffer (Li-Cor Biosciences) for 1 hr. Primary antibodies (Cell Signaling, Sant Cruz Biotechnology) were added (1:1,000 dilution) in blocking buffer with 0.1% Tween-20 and 1:20,000 dilution of β-actin antibody and incubated for 14 hr at 4° C. Blots were washed in TBS-T. Label-conjugated goat anti-rabbit secondary antibody (IRdye® 800CW; Li-Cor Biosciences) was added in blocking buffer with 0.1% Tween-20 and 0.02% SDS and incubated for 1 hr. After washing in TBS-T followed by TBS, membranes were scanned on an Odyssey imaging system (Li-Cor Biosciences). Bands were quantitated using ImageJ.
For orientation: In western blotting, separated proteins are transferred to a membrane and probed.

The test system of the next experiment is U-2932. The experiment in a line: MTS cell proliferation assay, U-2932. The experiment is classed as cell-based. Particulars: Homo sapiens, U2932; U-2932, 72 hr. The procedure: (§3) Cell proliferation was measured using the CellTiter 96 Aqueous Non-Radioactive Cell Proliferation Assay (Promega). The CellTiter 96® AQueous Assay is composed of solutions of a tetrazolium compound [3-(4,5-dimethylthiazol-2-yl)-5-(3-carboxymethoxyphenyl)-2-(4-sulfophenyl)-2H-tetrazolium, inner salt; MTS] and an electron coupling reagent (phenazine methosulfate) PMS. MTS is bioreduced by cells into a formazan product that is soluble in tissue culture medium. The absorbance of the formazan product at 490 nm can be measured directly from assay plates without additional processing. The quantity of formazan product as measured by the amount of 490 nm absorbance is directly proportional to the number of living cells in culture. Cells were seeded into 96-well or 384-well clear plates in a volume of 200 μL (96-well) or 50 μL (384-well) at optimized densities ranging from 1,000 to 40,000 cells per well for 96-well plates or 1,200 to 25,000 cells per well for 384-well plates depending on cell-line. After 4-6 hr recovery, serially diluted compounds in DMSO were added to the cells using (0.1% v/v final DMSO concentration). Cells were then grown at 37° C. in a humidified incubator with 5% CO2 for 72 hr. A 20:1 [3-(4,5-dimethylthiazol-2-yl)-5-(3-carboxymethoxyphenyl)-2-(4-sulfophenyl)-2H-tetrazolium](MTS):phenazine methosulfate (PMS) solution in DPBS was made immediately before use, added to each well, and cells were incubated for 1.5 hr at 37° C. The absorbance at 490 nm was then measured using a platereader. Absorbance values were normalized as percent of control (cells incubated in the presence of 0.1% v/v DMSO). Sigmoidal dose-response curves were plotted using log(inhibitor) vs. response—Variable slope (four parameters) model with a top value constrained to 100% (GraphPad Prism version 6.00 for Windows, GraphPad Software, La Jolla California USA). […] Curves for compounds that reached a plateau were matched exactly to the measurement points. […] To determine potential of compounds of the invention to affect viability of hematological cancers, cell lines representing various tumor types were selected and tested. Human cell lines tested were: MOLM-13 (acute myeloid leukemia (AML)), MV4-11 (AML), U-2932 (ABC-diffuse large B cell lymphoma), U-937 (histiocytic lymphoma), U-266 (multiple myeloma), RPMI-8226 (multiple myeloma), CMK (megakaryoblastic cell line), SU-DHL-4 (GCB-diffuse large B cell lymphoma), KG1 (AML), Mec-1 (chronic B-cell leukemia), MOLM-16 (AML), Jeko (B-cell lymphoma), WSU-DLCL2 (B-cell lymphoma), JJN3 (plasma cell leukemia), SU-DHL-6 (GCB-diffuse large B cell lymphoma), and Z-138 (mantle cell lymphoma). In addition, two murine cell lines were tested: A20 […].

For a further experiment, the system named is RPMI-8226. The experiment in a line: MTS cell proliferation assay, RPMI-8226. The following applies: Homo sapiens; RPMI-8226, 72 hr. The experiment is classed as cell-based. The procedure:
as §3

Experiment [1] deals with hematologic tumor cell lines. The experiment in a line: MTS cell proliferation assay, panel of hematologic cancer cell lines. The experiment is classed as cell-based. Particulars: range over 16 cell lines, FIG. 3; read-out: potency in the cell proliferation assay (EC50). The procedure: as §3
A further experiment deals with P-PDK1. In words: Western blot, PDK1 phosphorylation in C1498 cells. Particulars: C1498. The experiment is classed as cell-based, murine. On the procedure: as §2, with “Blots were washed in TBS-T. Label-conjugated goat anti-rabbit secondary antibody (IRdye® 800CW; Li-Cor Biosciences) was added in blocking buffer with 0.1% Tween-20 and 0.02% SDS and incubated for 1 hr. After washing in TBS-T followed by TBS, membranes were scanned on an Odyssey imaging system (Li-Cor Biosciences).” left out

A further experiment concerns A20. The experiment in a line: MTS cell proliferation assay, A20. The experiment is classed as cell-based, murine. The following applies: Mus musculus; A20, 72 hr. The procedure:
as §3

In the next experiment the test system is Molm-13. In words: MTS cell proliferation assay, Molm-13. The experiment is classed as cell-based. Particulars: Homo sapiens; Molm-13, 72 hr. On the procedure:
as §3

For the next experiment, the system named is MV4-11. In words: MTS cell proliferation assay, MV4-11. The experiment is classed as cell-based, human. The procedure: as §1
The test system of the next experiment is Jeko. The experiment in a line: MTS cell proliferation assay, Jeko. The following applies: Homo sapiens, 72 hr. The experiment is classed as cell-based. The procedure: as §3
The next experiment relates to P-RSK2. The experiment in a line: Western blot, RSK2 phosphorylation in C1498 cells. The experiment is classed as cell-based, murine. Particulars: C1498. On the procedure: as §2, with “Blots were washed in TBS-T. Label-conjugated goat anti-rabbit secondary antibody (IRdye® 800CW; Li-Cor Biosciences) was added in blocking buffer with 0.1% Tween-20 and 0.02% SDS and incubated for 1 hr. After washing in TBS-T followed by TBS, membranes were scanned on an Odyssey imaging system (Li-Cor Biosciences).” left out

SMILES strings stand for the structures.

Consider `NC1(c2ccc(-c3nc4ccn5c(=O)[nH]nc5c4cc3-c3ccccc3)cc2)CCC1` [MK-2206, reference compound], for which the “plateau of growth inhibition curve” value in the experiment on C1498 (C1498) and in the experiment with MV4-11 (MV4-11) was “do not reach a plateau below 20%” in each case. Moreover, the EC50 in the experiment with C1498 (Mus musculus, C1498, 72 hr, read-out: MTS proliferation assay) is 812 nM; with U-2932, 4880 nM; in the experiment with RPMI-8226, 906 nM; in experiment [1] it was 100 to 10700 nM; in the experiment on A20 it was 138 nM; in the experiment with Molm-13, 1370 nM. Moreover, the EC50 was 1300 nM in the experiment with MV4-11 (Homo sapiens, MV4-11, 72 hr, read-out: MTS proliferation assay) and 980 nM in the experiment with Jeko. The “P-AKT levels” value in the experiment on P-AKT is listed as “sensitive”. In the experiment on P-PDK1, the “effect on PDK1 phosphorylation” value is recorded as “appears to enhance”. In addition, the “effect on RSK2 phosphorylation” value in the experiment with P-RSK2 is “appears to enhance”.

The record behind these values is US20240207258A1, “HETEROCYCLIC PDK1 INHIBITORS FOR USE TO TREAT CANCER” (Viracta Therapeutics, Inc., priority 2015, published 2024).
